Experimental data published in ChEMBL document CHEMBL5046275 (J Med Chem, 2022).
Converted amounts (≈) assume the structure as drawn.

How the values were obtained:
[1] = target: T1, Cyclin-dependent kinase 5/CDK5 activator 1 (Homo sapiens, UniProt Q00535); assay: Inhibition of full length N-terminal GST fused human CDK5(1 to 292 residues)/ p25 (99 to 307 residues) expressed in baculovirus expression system using FL peptide as substrate preincubated for 30 mins followed by substrate addition further incubated for 60 mins by EZ reader method
CDK2/Cyclin A2 = CDK2/Cyclin A2 (Homo sapiens, UniProt P24941); assay: Inhibition of full length N-terminal GST tagged human CDK2(1 to 298 residues)/CyclinA2 (1 to 432 residues) expressed in baculovirus expression system using FL peptide as substrate preincubated for 30 mins followed by substrate addition further incubated for 120 mins by EZ reader method
Homo sapiens [2] = organism: Homo sapiens; assay: Selectivity ratio of IC50 for inhibition of full length N-terminal GST tagged human CDK2(1 to 298 residues)/CyclinA2 (1 to 432 residues) to IC50 for inhibition of full length N-terminal GST fused human CDK5(1 to 292 residues)/ p25 (99 to 307 residues)
CDK6/cyclin D3 = CDK6/cyclin D3 (Homo sapiens, UniProt Q00534); assay: (§1) Inhibition of full length N-terminal GST fused human CDK6 (1 to 326 residues)/CyclinD3 (1 to 292 residues) expressed in baculovirus expression system using FL peptide as substrate preincubated for 30 mins followed by substrate addition and further incubated for 120 mins by EZ reader method
CDK7/Cyclin H/MNAT1 = CDK7/Cyclin H/MNAT1 (Homo sapiens, UniProt P50613); assay: as §1, with “CDK7” for “CDK6”, “346 residues)/CyclinH” for “326 residues)/CyclinD3”, “323 residues)/ MAT1 (1 to 309” for “292”, “90” for “120”
CDK9/cyclin T1 = CDK9/cyclin T1 (Homo sapiens, UniProt P50750); assay: as §1, with “CDK9(1 to 372 residues)/ His- tagged CyclinT1” for “CDK6”, “726” for “326 residues)/CyclinD3 (1 to 292”, “90” for “120”
Homo sapiens [3] = organism: Homo sapiens; assay: Selectivity ratio of IC50 for human CDK6 to IC50 for human CDK5
Homo sapiens [4] = organism: Homo sapiens; assay: Selectivity ratio of IC50 for human CDK7 to IC50 for human CDK5
Homo sapiens [5] = organism: Homo sapiens; assay: Selectivity ratio of IC50 for human CDK9 to IC50 for human CDK5
[6] = Kinetic aqueous solubility of compound in PBS at pH 7.4 incubated for 2 hrs by LC-MS/MS analysis; assay type: physicochemical; conditions: read-out: Kinetic_solubility
P-gp = assay: Substrate activity at P-gp in dog MDCKII-MDR1 cells assessed as efflux ratio of permeability at 1 uM incubated for 120 mins; assay type: ADME, cell-based, Canis lupus familiaris; conditions: MDCK-MDR1
[7] = Apparent permeability across apical to basolateral side in dog MDCKII-MDR1 cells at 1 uM incubated for 120 mins; assay type: ADME, cell-based, Canis lupus familiaris; conditions: MDCK-MDR1
[8] = Plasma protein binding in Sprague-Dawley rat at 1 uM incubated for 6 hrs by equilibrium dialysis based LC-MS/MS analysis; assay type: ADME, cell-free; conditions: read-out: PPB (converted)
[9] = Metabolic stability human hepatocytes assessed as intrinsic clearance at 1 uM measured up to 120 mins by LC-MS/MS analysis; assay type: ADME, cell-based, Hepatocyte; conditions: read-out: CLH
[10] = Metabolic stability in CD-1 mouse hepatocytes assessed as intrinsic clearance at 1 uM measured up to 120 mins by LC-MS/MS analysis; assay type: ADME, cell-based, Hepatocyte; conditions: read-out: CLH
[11] = Metabolic stability in Sprague-Dawley rat hepatocytes assessed as intrinsic clearance at 1 uM measured up to 120 mins by LC-MS/MS analysis; assay type: ADME, cell-based, Hepatocyte; conditions: read-out: CLH
[12] = Clearance in Sprague-Dawley rat at 1 mg/kg, iv measured upto 24 hrs by LC-MS/MS analysis; assay type: ADME, organism-based; conditions: in vivo
[13] = Volume of distribution at steady state in Sprague-Dawley rat at 1 mg/kg, iv measured upto 24 hrs by LC-MS/MS analysis; assay type: ADME, organism-based; conditions: in vivo, read-out: Vdss
[14] = Half life in Sprague-Dawley rat at 1 mg/kg, iv measured upto 24 hrs by LC-MS/MS analysis; assay type: ADME, organism-based; conditions: in vivo
[15] = AUC (0 to 24 hrs) in Sprague-Dawley rat at 1 mg/kg, iv measured upto 24 hrs by LC-MS/MS analysis; assay type: ADME, organism-based; parameters: route intravenous, dose 1 mg/kg, time <=24; conditions: in vivo
[16] = Cmax in Sprague-Dawley rat at 3 mg/kg, po measured upto 24 hrs by LC-MS/MS analysis; assay type: ADME, organism-based; parameters: route oral, dose 3 mg/kg, time <=24; conditions: in vivo
[17] = AUC (0 to 24 hrs) in Sprague-Dawley rat at 3 mg/kg, po measured upto 24 hrs by LC-MS/MS analysis; assay type: ADME, organism-based; parameters: route oral, dose 3 mg/kg, time <=24; conditions: in vivo
[18] = Oral bioavailability in Sprague-Dawley rat at 3 mg/kg measured upto 24 hrs by LC-MS/MS analysis; assay type: ADME, organism-based; conditions: in vivo
[19] = Cmax in Sprague-Dawley rat at 10 mg/kg, po measured upto 24 hrs by LC-MS/MS analysis; assay type: ADME, organism-based; parameters: route oral, dose 10 mg/kg, time <=24; conditions: in vivo
[20] = AUC (0 to 24 hrs) in Sprague-Dawley rat at 10 mg/kg, po measured upto 24 hrs by LC-MS/MS analysis; assay type: ADME, organism-based; parameters: route oral, dose 10 mg/kg, time <=24; conditions: in vivo
[21] = Oral bioavailability in Sprague-Dawley rat at 10 mg/kg measured upto 24 hrs by LC-MS/MS analysis; assay type: ADME, organism-based; conditions: in vivo
[22] = target: T1, Cyclin-dependent kinase 5/CDK5 activator 1; assay: Inhibition of Nano-Luc fused human full length CDK5/P35 transfected in HEK293 cells incubated for 1 hr by NanoBRET assay; assay type: cell-based
HEK-293T = assay: Antiproliferative activity against human HEK293T cells assessed as cell growth inhibition incubated for 48 hrs; assay type: functional, cell-based

T1 sequence (Q00535 whole entry, the tested form may be a part): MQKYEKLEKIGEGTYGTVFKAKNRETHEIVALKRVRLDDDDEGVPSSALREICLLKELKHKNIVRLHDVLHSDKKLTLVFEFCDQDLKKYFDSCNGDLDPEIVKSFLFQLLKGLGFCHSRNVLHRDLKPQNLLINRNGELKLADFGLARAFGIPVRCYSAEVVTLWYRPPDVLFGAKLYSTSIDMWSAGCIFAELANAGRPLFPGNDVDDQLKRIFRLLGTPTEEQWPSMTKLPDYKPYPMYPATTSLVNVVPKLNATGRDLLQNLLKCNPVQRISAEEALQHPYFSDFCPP
T1 sequence (Q15078 whole entry, further chain, the tested form may be a part): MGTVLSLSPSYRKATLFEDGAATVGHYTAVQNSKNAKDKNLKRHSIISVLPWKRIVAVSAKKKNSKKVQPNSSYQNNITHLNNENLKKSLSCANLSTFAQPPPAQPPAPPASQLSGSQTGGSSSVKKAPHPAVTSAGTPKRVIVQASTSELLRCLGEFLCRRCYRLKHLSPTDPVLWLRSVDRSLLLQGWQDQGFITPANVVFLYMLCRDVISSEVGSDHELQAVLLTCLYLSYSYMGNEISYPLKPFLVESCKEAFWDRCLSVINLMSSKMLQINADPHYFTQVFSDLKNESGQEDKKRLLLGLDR
Sequence of CDK7/Cyclin H/MNAT1 (P51946 whole entry, the tested form may be a part): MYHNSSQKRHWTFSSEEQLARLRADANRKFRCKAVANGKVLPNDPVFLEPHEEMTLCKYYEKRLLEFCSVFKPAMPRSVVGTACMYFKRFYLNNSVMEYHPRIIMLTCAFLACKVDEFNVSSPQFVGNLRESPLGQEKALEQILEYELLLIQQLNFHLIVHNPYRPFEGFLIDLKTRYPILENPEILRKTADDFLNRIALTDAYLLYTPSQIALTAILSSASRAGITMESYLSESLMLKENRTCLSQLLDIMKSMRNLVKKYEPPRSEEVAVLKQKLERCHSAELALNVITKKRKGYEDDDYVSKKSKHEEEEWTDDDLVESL
Sequence of CDK7/Cyclin H/MNAT1 (P50613 whole entry, the tested form may be a part): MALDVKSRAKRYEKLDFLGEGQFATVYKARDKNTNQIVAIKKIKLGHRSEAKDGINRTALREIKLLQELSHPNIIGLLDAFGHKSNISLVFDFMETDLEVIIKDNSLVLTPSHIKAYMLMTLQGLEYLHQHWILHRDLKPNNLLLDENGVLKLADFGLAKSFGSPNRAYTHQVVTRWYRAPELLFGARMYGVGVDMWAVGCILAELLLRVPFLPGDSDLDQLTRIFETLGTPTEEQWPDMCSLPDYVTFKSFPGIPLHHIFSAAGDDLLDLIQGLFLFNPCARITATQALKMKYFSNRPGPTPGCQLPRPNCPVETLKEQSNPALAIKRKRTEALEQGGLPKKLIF
Sequence of CDK7/Cyclin H/MNAT1 (P51948 whole entry, further chain, the tested form may be a part): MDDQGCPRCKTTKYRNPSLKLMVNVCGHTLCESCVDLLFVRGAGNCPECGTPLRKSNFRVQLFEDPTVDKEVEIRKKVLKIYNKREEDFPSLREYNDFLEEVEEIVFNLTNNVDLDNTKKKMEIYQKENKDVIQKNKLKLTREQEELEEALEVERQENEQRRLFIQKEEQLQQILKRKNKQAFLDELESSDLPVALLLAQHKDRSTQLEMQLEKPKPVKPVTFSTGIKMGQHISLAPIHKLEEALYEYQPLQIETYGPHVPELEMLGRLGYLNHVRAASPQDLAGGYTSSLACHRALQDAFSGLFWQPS
Sequence of CDK9/cyclin T1 (O60563 whole entry, the tested form may be a part): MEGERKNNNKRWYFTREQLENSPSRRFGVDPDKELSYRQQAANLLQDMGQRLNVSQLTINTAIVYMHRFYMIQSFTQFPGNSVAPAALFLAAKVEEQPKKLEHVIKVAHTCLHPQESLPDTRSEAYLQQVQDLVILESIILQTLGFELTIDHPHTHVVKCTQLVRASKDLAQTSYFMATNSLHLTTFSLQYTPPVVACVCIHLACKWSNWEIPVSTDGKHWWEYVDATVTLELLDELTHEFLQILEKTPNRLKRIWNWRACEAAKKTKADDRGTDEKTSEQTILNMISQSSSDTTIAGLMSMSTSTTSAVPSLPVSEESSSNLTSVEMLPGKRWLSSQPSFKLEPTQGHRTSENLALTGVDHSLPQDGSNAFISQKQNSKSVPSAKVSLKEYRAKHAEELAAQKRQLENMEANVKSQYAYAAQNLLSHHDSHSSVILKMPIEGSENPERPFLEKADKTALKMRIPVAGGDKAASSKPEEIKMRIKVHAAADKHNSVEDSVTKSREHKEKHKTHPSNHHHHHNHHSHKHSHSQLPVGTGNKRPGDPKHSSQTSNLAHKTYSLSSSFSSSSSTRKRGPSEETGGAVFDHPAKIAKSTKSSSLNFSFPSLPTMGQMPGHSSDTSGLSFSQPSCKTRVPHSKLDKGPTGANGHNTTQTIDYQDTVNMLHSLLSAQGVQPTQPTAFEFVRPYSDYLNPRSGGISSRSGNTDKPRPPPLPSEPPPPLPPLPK
Sequence of CDK9/cyclin T1 (P50750 whole entry, the tested form may be a part): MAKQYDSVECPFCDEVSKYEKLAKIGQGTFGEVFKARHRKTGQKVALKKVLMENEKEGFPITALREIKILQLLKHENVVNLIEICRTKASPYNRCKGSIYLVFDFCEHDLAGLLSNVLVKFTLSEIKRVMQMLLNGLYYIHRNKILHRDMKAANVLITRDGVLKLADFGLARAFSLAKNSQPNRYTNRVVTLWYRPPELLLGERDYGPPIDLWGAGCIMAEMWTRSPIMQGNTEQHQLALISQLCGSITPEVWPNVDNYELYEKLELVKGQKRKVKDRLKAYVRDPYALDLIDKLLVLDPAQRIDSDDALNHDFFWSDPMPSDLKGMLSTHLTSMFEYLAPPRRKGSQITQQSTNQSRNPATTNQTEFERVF
Sequence of CDK6/cyclin D3 (P30281 whole entry, the tested form may be a part): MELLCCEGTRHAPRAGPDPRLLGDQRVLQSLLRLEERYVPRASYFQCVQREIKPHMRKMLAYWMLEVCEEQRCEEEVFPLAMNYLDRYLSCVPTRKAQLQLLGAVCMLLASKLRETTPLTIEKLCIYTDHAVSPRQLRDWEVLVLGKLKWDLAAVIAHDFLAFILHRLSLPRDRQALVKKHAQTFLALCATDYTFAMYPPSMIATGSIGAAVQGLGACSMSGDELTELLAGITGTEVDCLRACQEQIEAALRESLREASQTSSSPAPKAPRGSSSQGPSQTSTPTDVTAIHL
Sequence of CDK6/cyclin D3 (Q00534 whole entry, the tested form may be a part): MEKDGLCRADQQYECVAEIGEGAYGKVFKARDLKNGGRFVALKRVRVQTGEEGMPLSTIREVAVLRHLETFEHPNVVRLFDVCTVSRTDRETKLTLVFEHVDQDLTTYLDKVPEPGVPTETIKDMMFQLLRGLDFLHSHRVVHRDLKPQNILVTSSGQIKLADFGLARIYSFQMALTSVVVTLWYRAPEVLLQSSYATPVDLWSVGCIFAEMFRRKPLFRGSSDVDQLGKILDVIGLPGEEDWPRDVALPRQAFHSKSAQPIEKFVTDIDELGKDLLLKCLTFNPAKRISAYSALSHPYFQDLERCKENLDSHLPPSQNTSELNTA

Question: What does the source list for `CN1CCC([C@@](C)(O)c2ccc3cnc(Nc4cc(C(F)(F)F)ncc4F)cc3n2)CC1`?
Answer: IC50 [1]: 2.3 nM; IC50 (CDK2/Cyclin A2): 211 nM; Ratio IC50 (Homo sapiens [2]): 92; IC50 (CDK6/cyclin D3): 3200 nM; IC50 (CDK7/Cyclin H/MNAT1): 718 nM; IC50 (CDK9/cyclin T1): 894 nM; Ratio IC50 (Homo sapiens [3]): 1390; Ratio IC50 (Homo sapiens [4]): 312; Ratio IC50 (Homo sapiens [5]): 389; solubility kinetic at 2 h [6]: 259 µM (≈ 116 µg/mL); efflux ratio at 2 h, 1 µM (P-gp): 9; Papp A→B at 2 h, 1 µM [7]: 18 ×10⁻⁶ cm/s; fraction unbound at 6 h, 1 µM [8]: 0.37; CLint scaled at 1 µM [9]: 13 mL/min/kg; CLint scaled at 1 µM [10]: 89 mL/min/kg; CLint scaled at 1 µM [11]: 17 mL/min/kg; clearance [12]: 12 mL/min/kg; Vd [13]: 7.3 L/kg; half-life [14]: 7.6 h; AUC(0-t) [15]: 1300 ng·h/mL; Cmax [16]: 83 ng/mL; AUC(0-t) [17]: 999 ng·h/mL; bioavailability [18]: 25%; Cmax [19]: 350 ng/mL; AUC(0-t) [20]: 5320 ng·h/mL; bioavailability [21]: 41%

Question: Which IC50 [1] does the source give for `CN1CCC([C@@](C)(O)c2ccc3cnc(Nc4cc(N5CCOCC5)ncc4F)cc3n2)CC1` here?
Answer: 3.2 nM

Question: And the IC50 (CDK2/Cyclin A2)?
Answer: 301 nM

Question: What about the Ratio IC50 (Homo sapiens [2]) of the same compound?
Answer: 94

Question: And the IC50 (CDK6/cyclin D3)?
Answer: 125 nM

Question: And the IC50 (CDK7/Cyclin H/MNAT1)?
Answer: 78 nM

Question: And the IC50 (CDK9/cyclin T1)?
Answer: 154 nM

Question: And the IC50 [22]?
Answer: 1.2 nM

Question: And the IC50 (HEK-293T)?
Answer: > 10000 nM

Question: What about the solubility kinetic at 2 h [6] of the same compound?
Answer: 274 µM (≈ 128 µg/mL)

Question: What about the efflux ratio at 2 h, 1 µM (P-gp) of the same compound?
Answer: 38

Question: What about the Papp A→B at 2 h, 1 µM [7] of the same compound?
Answer: 7.9 ×10⁻⁶ cm/s

Question: And the fraction unbound at 6 h, 1 µM [8]?
Answer: 0.53

Question: What about the CLint scaled at 1 µM [9] of the same compound?
Answer: < 7 mL/min/kg

Question: And the CLint scaled at 1 µM [10]?
Answer: 69 mL/min/kg

Question: What about the CLint scaled at 1 µM [11] of the same compound?
Answer: < 13 mL/min/kg

Question: And the clearance [12]?
Answer: 53 mL/min/kg

Question: What about the Vd [13] of the same compound?
Answer: 9.4 L/kg

Question: And the half-life [14]?
Answer: 2.7 h

Question: What about the AUC(0-t) [15] of the same compound?
Answer: 305 ng·h/mL

Question: And the Cmax [16]?
Answer: 19 ng/mL

Question: What about the AUC(0-t) [17] of the same compound?
Answer: 143 ng·h/mL

Question: And the bioavailability [18]?
Answer: 16%
